{"source": "paper PMC8165606", "about": "“Effects of Natural Monoamine Oxidase Inhibitors on Anxiety-Like Behavior in Zebrafish” (Frontiers in Pharmacology, 2021)", "key": {"[1]": {"test_system": "norepinephrine transporter", "experiment": "Pilot in vitro norepinephrine transporter binding (data not shown)", "conditions": "pilot study in vitro"}, "zebrafish": {"test_system": "zebrafish", "conditions": "for NTT time spent at the top and bottom: 20 min treatment, 5 min test", "experimental": "Adult male and female wild-type zebrafish were treated with the compounds for 20 min in a final volume of 50 ml in a 250-ml treatment beaker, one fish at a time. […] If not, the concentration was reduced until no obvious signs of tolerability problems (e.g., seizure-like tail or body movement) were observed.\nFollowing compound treatment in a 250 ml beaker, the fish were briefly rinsed in fresh system water, and then immediately transferred to a trapezoidal tank (14.6 cm height x 5.5 cm width x 27.9 cm top length and x 23.6 cm bottom length) filled with 1.5 L system water (Figure 1B). The behavior of the fish was monitored for the next 5 min by using the Noldus EthoVision XT system (Wageningen, Netherlands), with the camera placed approximately 1 m from the test tank (Figure 1C). The water-filled part of the tank (11.5 cm height) was virtually divided into top, center, and bottom (Figure 1B). The average time spent at the top and bottom portions of the tank was analyzed to determine the anxiety-like behavior of fish. […] The experimenters were blind to the test conditions. A minimum of 12 fish (6 females and 6 males) per condition were used for the study.\nThe behavioral findings were analyzed in 1 min bins using two-way repeated measures ANOVA with Dunnett post hoc analysis. The analyses were conducted by using GraphPad Prism v8.2.1 (GraphPad Software, San Diego, CA, United States)."}, "serotonin receptor": {"test_system": "serotonin receptor", "experiment": "Pilot in vitro serotonin receptor binding (data not shown)", "conditions": "pilot study in vitro"}, "MAO-A and MAO-B [2]": {"test_system": "MAO-A and MAO-B", "parameters": "method as in Fisar et al., 2010", "conditions": "crude pig brain mitochondrial fractions ref Fisar et al., 2010; cited from earlier work"}, "MAO-A and MAO-B [3]": {"test_system": "MAO-A and MAO-B", "conditions": "cited from earlier work"}, "zebrafish brain": {"test_system": "zebrafish brain", "experiment": "Ex vivo bioavailability assay in fish brain (UPLC-HRMS or GC/MS)", "conditions": "relative brain level per 1 mg/L", "description": "The fish were decapitated at the level of the gills by using a surgical knife. The head was turned dorsal side down, and, soft tissue was removed from the ventral side of the skull using two forceps until the base of the skull was exposed. The skull was broken open, and the bone from the ventral side of the brain was removed. The brain was then placed in a microcentrifuge tube, weighed, snap-frozen in liquid nitrogen, and stored at −80°C until the analysis.\nBriefly, on the day of analysis, the brain samples were defrosted, resuspended in a methanol solution (2:1 [v/v] methanol:MilliQ water), and homogenized with vigorous agitation and ultrasonication (5 min each). The homogenate was centrifuged at 15,000 x rpm for 10 min, and the supernatant was analyzed by using a UPLC-Q Exactive Orbitrap-HRMS system (Thermo Fisher Scientific™, Bremen, Germany) for all compounds except for TMN, which was analyzed by gas chromatography/mass spectrometry (GC/MS) system. Chromatographic separation was achieved on a Synergi™ 4-µm Hydro-RP 80 Å, L.C. […]\nFor TMN, the Agilent GC/MS system (Agilent, Santa Clara, CA, United States) was used, because it is an apolar aromatic compound that could not be ionized for the detection by the UPLC-Q Exactive Orbitrap-HRMS system. […] The results were quantified using Agilent MS Workstation software (v6.9.3)."}, "MAO A": {"target": "T1, MAO A (Homo sapiens, UniProt P21397)", "T1 sequence (P21397 1-527)": "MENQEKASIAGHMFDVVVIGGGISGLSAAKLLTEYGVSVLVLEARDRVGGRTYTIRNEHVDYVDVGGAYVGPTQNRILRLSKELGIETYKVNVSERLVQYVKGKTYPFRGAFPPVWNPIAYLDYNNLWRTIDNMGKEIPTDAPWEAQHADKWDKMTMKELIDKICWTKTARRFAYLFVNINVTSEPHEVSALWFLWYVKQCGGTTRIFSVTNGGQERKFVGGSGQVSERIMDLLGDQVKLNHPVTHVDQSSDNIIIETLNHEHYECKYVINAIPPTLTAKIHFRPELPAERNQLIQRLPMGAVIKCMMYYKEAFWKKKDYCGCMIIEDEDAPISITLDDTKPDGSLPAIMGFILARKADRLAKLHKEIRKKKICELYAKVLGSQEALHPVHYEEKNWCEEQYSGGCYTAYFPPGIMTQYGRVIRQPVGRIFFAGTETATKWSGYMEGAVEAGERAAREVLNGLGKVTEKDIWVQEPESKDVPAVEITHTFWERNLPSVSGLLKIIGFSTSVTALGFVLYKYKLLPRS", "experiment": "MAO-Glo two-step bioluminescent assay, MAO A", "assay_type": "biochemical", "conditions": "for Selectivity between MAO A and B: present study", "from_the_text": "(§1) Fluostar Omega 96 Microplate reader (BMG LABTECH GmbH, Ortenberg, Germany) was used to measure the luminescent signal and to determine the IC50 (half maximal inhibitory concentration)."}, "MAO B": {"target": "T2, MAO B (Homo sapiens, UniProt P27338)", "T2 sequence (P27338 1-520)": "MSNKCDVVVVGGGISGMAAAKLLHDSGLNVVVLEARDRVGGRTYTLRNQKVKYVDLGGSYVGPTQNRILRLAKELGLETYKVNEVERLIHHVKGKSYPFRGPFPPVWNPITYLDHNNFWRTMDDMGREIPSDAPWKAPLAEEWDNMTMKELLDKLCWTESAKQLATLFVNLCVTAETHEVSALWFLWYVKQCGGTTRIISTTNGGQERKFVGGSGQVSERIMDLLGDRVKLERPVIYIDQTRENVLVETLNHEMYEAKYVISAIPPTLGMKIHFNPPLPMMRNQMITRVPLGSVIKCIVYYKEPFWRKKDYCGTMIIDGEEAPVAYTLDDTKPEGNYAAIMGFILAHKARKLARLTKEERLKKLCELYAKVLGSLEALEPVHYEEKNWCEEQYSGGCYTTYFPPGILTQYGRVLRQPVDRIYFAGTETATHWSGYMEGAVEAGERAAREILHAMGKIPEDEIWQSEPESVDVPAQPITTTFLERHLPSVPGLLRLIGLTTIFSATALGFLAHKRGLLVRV", "experiment": "MAO-Glo two-step bioluminescent assay, MAO B", "assay_type": "biochemical", "conditions": "mean ± SEM; substrate 3 µM", "from_the_text": "as §1"}, "[4]": {"conditions": "two highest concentrations tested"}, "[5]": {"conditions": "all concentrations tested, throughout the test period"}}, "note": "Structures can show the parent of a compound that is named as a salt. Where two headings read alike, the source gives them in different places.", "data": [{"smiles": "c1ccc2c(c1)[nH]c1cnccc12", "note": "[Norharmane, norharmane]", "values": [{"measurement": "Norepinephrine transporter binding activity", "setting": "[1]", "value": "~10", "unit": "µM"}, {"measurement": "NTT time spent at the top and bottom", "setting": "zebrafish; 0.3 mg/L", "value": "no effect"}, {"measurement": "NTT time spent at the top and bottom", "setting": "zebrafish; 1 mg/L", "value": "significant effect between 2 and 3 min of the test"}, {"measurement": "NTT time spent at the top and bottom", "setting": "zebrafish; 3 mg/L", "value": "increased the time spent at the top and decreased the time spent at the bottom during the last 2 min"}, {"measurement": "NTT total distance traveled", "setting": "zebrafish; highest concentration tested", "value": "significantly reduced"}, {"measurement": "Serotonin receptor binding activity", "setting": "serotonin receptor", "value": "~10", "unit": "µM"}]}, {"smiles": "c1ccc2c(c1)CCNC2", "note": "[TIQ, 1,2,3,4-tetrahydroisoquinoline]", "values": [{"measurement": "NTT time spent at the top and bottom", "setting": "zebrafish; 10 mg/L", "value": "no effect"}, {"measurement": "NTT time spent at the top and bottom", "setting": "zebrafish; 30 mg/L", "value": "generally increased and decreased the time spent at the top and bottom, respectively"}, {"measurement": "NTT time spent at the top and bottom", "setting": "zebrafish; 100 mg/L", "value": "generally increased and decreased the time spent at the top and bottom, respectively"}, {"measurement": "Effect on general movement in NTT", "setting": "zebrafish; 10, 30 and 100 mg/L", "value": "no observable effect on general movement"}]}, {"smiles": "C#CCN(C)Cc1ccccc1", "note": "[Pargyline, pargyline hydrochloride]", "values": [{"measurement": "Difference between the Ki values of MAO-A and MAO-B", "setting": "MAO-A and MAO-B [2]", "value": 1.4, "unit": "fold"}, {"measurement": "NTT time spent at the top and bottom", "setting": "zebrafish; 10 mg/L", "value": "only an anxiogenic-like effect, but only for the first 1 min of the test"}, {"measurement": "NTT total distance traveled", "setting": "zebrafish; [4]", "value": "significantly reduced"}, {"measurement": "Difference in Ki values of MAO-A and MAO-B", "setting": "MAO-A and MAO-B [3]; recombinant human enzymes ref Oh et al., 2020", "value": "> 100", "unit": "fold"}, {"measurement": "Difference in Ki values of MAO-A and MAO-B", "setting": "MAO-A and MAO-B [3]; recombinant human enzymes ref Takao et al., 2019", "value": 21, "unit": "fold"}]}, {"smiles": "C#CCN(C)CCCOc1ccc(Cl)cc1Cl", "note": "[Clorgyline, clorgyline hydrochloride, reference compound]", "values": [{"measurement": "NTT time spent at the top and bottom", "setting": "zebrafish; 10 mg/L", "value": "no effect"}, {"measurement": "NTT time spent at the top and bottom", "setting": "zebrafish; 30 mg/L", "value": "significantly increasing it only during the last 2 min"}, {"measurement": "NTT time spent at the top and bottom", "setting": "zebrafish; 100 mg/L", "value": "increasing the time spent at the top for almost the entire test period"}, {"measurement": "NTT total distance traveled", "setting": "zebrafish; [4]", "value": "significantly reduced"}, {"measurement": "Tolerability in zebrafish", "setting": "zebrafish; zebrafish, in vivo", "value": "borderline of tolerability"}]}, {"smiles": "Cc1nccc2c1[nH]c1ccccc12", "note": "[Harmane]", "values": [{"measurement": "Brain level relative to the rest of compounds tested", "setting": "zebrafish brain", "value": "approximately 10 fold"}, {"measurement": "Norepinephrine transporter binding activity", "setting": "[1]", "value": "~10", "unit": "µM"}, {"measurement": "IC50", "setting": "MAO A", "value": "0.05 ± 0.03", "unit": "µM"}, {"measurement": "MAO-A selectivity over MAO-B", "setting": "MAO A; from IC50 values", "value": "> 2,000 fold"}, {"measurement": "Selectivity between MAO A and B", "setting": "MAO A", "value": "only MAO A selective inhibitor"}, {"measurement": "NTT time spent at the top and bottom", "setting": "zebrafish; 1 mg/L", "value": "increased the time spent at the top and decreased the time spent at the bottom during the first minute"}, {"measurement": "NTT time spent at the top and bottom", "setting": "zebrafish; 3 mg/L", "value": "increased the time spent at the top and decreased the time spent at the bottom during the first minute"}, {"measurement": "NTT time spent at the top and bottom", "setting": "zebrafish; 10 mg/L", "value": "no effect"}, {"measurement": "NTT total distance traveled", "setting": "zebrafish; [5]", "value": "significantly reduced"}, {"measurement": "NTT freezing time", "setting": "zebrafish; highest concentration tested", "value": "increased the freezing time during the first 2 min"}, {"measurement": "IC50", "setting": "MAO B", "value": "> 100", "unit": "µM"}, {"measurement": "Serotonin receptor binding activity", "setting": "serotonin receptor", "value": "~10", "unit": "µM"}]}, {"smiles": "CC1=C(C)C(=O)c2cc(C)ccc2C1=O", "note": "[TMN, 2,3,6-trimethyl-1,4-naphtoquinone]", "values": [{"measurement": "IC50", "setting": "MAO A; mean ± SEM, substrate 20 µM, read-out: MAO a IC50", "value": "1.14 ± 0.74", "unit": "µM"}, {"measurement": "Selectivity between MAO A and B", "setting": "MAO A", "value": "no selectivity"}, {"measurement": "NTT time spent at the top and bottom", "setting": "zebrafish; 10 mg/L", "value": "only an anxiogenic-like effect during the last couple of minutes"}, {"measurement": "NTT time spent at the top and bottom", "setting": "zebrafish; 30 mg/L", "value": "mix of both anxiolytic- and anxiogenic-like behaviors"}, {"measurement": "NTT total distance traveled", "setting": "zebrafish; [5]", "value": "significantly reduced"}, {"measurement": "Tolerability in zebrafish", "setting": "zebrafish; highest concentrations tested, relatively high number of fish with long freezing", "value": "borderline of tolerability"}, {"measurement": "NTT freezing time", "setting": "zebrafish; [4]", "value": "increased the freezing time"}, {"measurement": "IC50", "setting": "MAO B", "value": "7.14 ± 2.29", "unit": "µM"}]}, {"smiles": "O=C1CC2(CCCC2)CC(=O)N1CCCCN1CCN(c2ncccn2)CC1", "note": "[buspirone, Buspirone hydrochloride, reference compound]", "values": [{"measurement": "NTT time spent at the top and bottom, treatment effect", "setting": "zebrafish; 10, 30 and 100 mg/L, two-way ANOVA", "value": "significant treatment effect"}, {"measurement": "Tolerability in zebrafish", "setting": "zebrafish; zebrafish, in vivo", "value": "borderline of tolerability"}]}]}
